Source: US20250019400A1, “POLYPEPTIDE AND COSMETIC COMPOSITION OR PHARMACEUTICAL COMPOSITION AND USE THEREOF” (SHENZHEN WINKEY TECHNOLOGY CO., LTD, priority 2022, published 2025)

System: smooth muscle contraction in ileum
Test: Muscle contraction inhibition experiment (acetylcholine-induced smooth muscle contraction in isolated ileum)
Design: species or system SD rats
Settings: after acetylcholine, rat ileum
Excerpt: 10 week old female SD rats weighing 220 g-260 g.
HW-400S constant temperature smooth muscle trough, BL-420E biological function experimental system, tension transducer, and other instruments as conventional experimental instruments.
acetylcholine chloride (Shanghai Yuanye), chloral hydrate (Shanghai Macklin).
• Acetyl octapeptide-3(Ac-Glu-Glu-Met-Gln-Arg-Arg-Ala-Asp-NH2), at a test concentration of 25 ppm, 50 ppm, 100 ppm, and 200 ppm, respectively; • Acetyl hexapeptide-30(Ac-Glu-Asp-Tyr-Tyr-Arg-Leu-NH2), at a test concentration of 25 ppm, 50 ppm, 100 ppm, and 200 ppm, respectively; • the peptide (4), at a test concentration of 25 ppm, 50 ppm, 100 ppm, and 200 ppm, respectively; • the peptide (8), at a test concentration of 25 ppm, 50 ppm, 100 ppm, and 200 ppm, respectively; • the peptide (32), at a test concentration of 100 ppm, 200 ppm, 400 ppm, and 800 ppm, respectively.
The experimental rats were fasted except for water for 12 hours before the experiment. 10% chloral hydrate was injected intraperitoneally into the rats at a dosage of 0.1 mL/25 g, and after the rats were anesthetized, the abdominal cavity was cut open to expose the enlarged cecum. A segment of ileum was taken out from the ileocecal region and washed clean in a tyrode's solution pre-bubbled with oxygen for 10 min, and several 4 cm long segments of ileum were cut and incubated in a tyrode's solution at 4° C. for subsequent use; and both ends of the ileum were tied partially and knotted with cotton threads to form a loop.
The HW-400S constant temperature smooth muscle trough and the BL-420E biological function experimental system were turned on, the tension transducer was connected to channel 1, the incubation temperature was adjusted to 37° C., the instruments were preheated for 0.5 hours, and oxygen was bubbled for more than 10 min. One end of the ileum segment is fixed to the intake bracket port with a cotton thread, and the other end thereof is connected to the tension transducer. The position and height of the transducer were appropriately adjusted to place the excised ileum segment in the center of the smooth muscle trough and then record of ileum activity was started.
After the muscle contraction was stabilized, acetylcholine with a final concentration of 0.1-1 μg/mL was added until a high and stable waveform appears in the muscle activity, and the action lasted for 5 minutes as the initial control. After balancing for 5 minutes, the samples to be tested were added respectively. Each time the test drug was replaced, the ileum segment was replaced with a new one, and relevant data was recorded by the instruments. The inhibition rate of smooth muscle contraction in ileum was calculated according to the following formula:
Inhibition rate of smooth muscle contraction in ileum=(contraction force after acetylcholine administration−contraction force after test sample administration)/contraction force after acetylcholine administration×100%
The experimental data was represented by mean standard deviation (Mean±SD).

Row | Substance | Inhibition rate of smooth muscle contraction in ileum (25 ppm, Mean±SD) [%] | Inhibition rate of smooth muscle contraction in ileum (50 ppm, Mean±SD) [%] | Inhibition rate of smooth muscle contraction in ileum (100 ppm, Mean±SD) [%] | Inhibition rate of smooth muscle contraction in ileum (200 ppm, Mean±SD) [%] | Inhibition rate of smooth muscle contraction in ileum (800 ppm) [%]
1 | Ac-Glu-Asp-Tyr-Tyr-Arg-Leu-NH2 (Ac-EDYYRL-NH2) [Acetyl hexapeptide-30, polypeptide in the prior art used as comparison sample, reference compound] | 0.00 ± 2.45 | 0.47 ± 2.09 | 2.73 ± 0.66 | 48.09 | –
2 | Ac-Glu-Glu-Met-Gln-Arg-Arg-Ala-Asp-NH2 (Ac-EEMQRRAD-NH2) [Acetyl octapeptide-3, polypeptide in the prior art used as comparison sample, reference compound] | 10.2 ± 1.23 | 32.34 | 47.49 | 58.67 | –
3 | Ac-Ser-Met-Gly-Ala-Leu-Ala-NH2 (Ac-SMGALA-NH2) [Peptide (8)] | 31.99 | 34.35 | 56.42 | 67.96 | –
4 | Ac-Trp-Ala-Ala-Pro-Phe-Leu-Arg-Ala-NH2 (Ac-WAAPFLRA-NH2) [(32)] | – | – | – | – | 44.41
5 | Ac-Val-Lys-Val-Leu-Gln-Trp-NH2 (Ac-VKVLQW-NH2) [Peptide (4)] | 49.78 | 62.40 | 66.72 | 76.88 | –
